According to patent US20090304744A1, “METHODS OF ENHANCING IMMUNE RESPONSE IN THE INTRADERMAL COMPARTMENT AND COMPOUNDS USEFUL THEREOF” (priority 2003, published 2009):
Where two headings read alike, the source gives them in different places.

How the values were obtained:
[1] = tested on: influenza antigen (Influenza APR834); format: in vivo, Balb/c mice; conditions: ID; for Trend in immune response as indicated by ELISA signal (1:123 serum screening dilution): mice
[2] = tested on: Influenza A/Panama/2007/99 (H3N2); assay: HAI assay after ID microneedle immunization of rats with FLUZONE +/- Tween 80; format: in vivo, Brown Norway rats; conditions: for % Seroconversion (HAI Titre ≧ 10) / % Seroprotection (HAI Titre ≧ 40): day 21, Tween 80 at 5% where added
Method: Measurement of HA specific Antibody Titer by HAI: Sera were collected and used as test samples. Fresh cRBC reagent was prepared daily. Sodium Chloride solution (0.9%) was added to wells of a Falcon® Non-Tissue Culture Treated Plate, 96 well, U-Bottom with Low Evaporation Lid. Viral lysate stock (8 HA/50 μl) was added to wells. Appropriate volume of test serum was added to a single row or column of “start wells,” and a serial dilution was performed by transferring 50 μl of the serum dilution from the “start wells” into the next well, creating a 1:2 dilution. When completed, wells contained a serial serum dilution and a constant amount of viral lysate antigen, being 4 HA per well. cRBC reagent (0.5%, 50 μl) was added to each well, including negative control wells, which contained no HA. The assay was allowed to incubate for 45 minutes at room temperature, ensuring that the plate is not jostled. For determination, plates were tilted at a 70-degree angle for 5 minutes, and viewed on alight box.
HAI assays were performed with A-New Caledonia (H1N1), A-Panama (H3N2) and B-Hong Kong antigen as single test antigens and trivalent pools.
Female Brown Norway (BN) rats (n=10/group) were immunized by ID delivery using Microneedles (34 gauge needle inserted into a 3.5″ long catheter to an exposed needle length of 1.0 mm). ID delivery by Microneedles consisted of 2 bolus injections of 100 μl by hand to either side of the lower back of the rat, approximately 10 seconds in duration (each bolus), using an attached 1 cc syringe. Rats were immunized with either of two different doses of the 2003/2004 season of FLUZONE™ (Aventis Pasteur, Swiftwater, Pa.), for a total of 9µg (high dose) or 0.9µg (low dose) hemagglutinin (HA) per rat, 3µg or 0.3µg HA of each strain of influenza in the vaccine (A/New Calcdonia/20/99 H1N1, A/Panama/2007/99H3N2, and B/Hong Kong/1434/2002).
The rats were bled 21 days after immunization and their serum assayed for neutralizing antibody titres using the hemagglutination inhibition (HAI) assay, and for influenza-specific antibody titres by ELISA. Both assays were performed against the H3N2 strain of influenza in the FLUZONE™ formulation to characterize the immune response.

[3] = tested on: Influenza A/Panama/2007/99 (H3N2); assay: Influenza-specific ELISA titre after ID microneedle immunization of rats with FLUZONE +/- Tween 80; format: in vivo, Brown Norway rats; conditions: 5% Tween80 added to low or high dose FLUZONE
Method: Antibody response to FLUZONE™ was measured by coating an influenza antigen (Influenza APR834, purified/inactivated at 2 mg/mL from Charles River SPAFAS or Alternatively New Calcdonia, Panama or B-Hong Kong lysates from Biodesign Inc.) on a microtiter plate (96-well NUNC IMMUNO-PLATE™ with MAXISORP™ surface). The coating solution was approximately 3.8µg/mL of influenza protein in carbonate buffer (Sigma Chemical Co. Cat. C3041). The coating antigen was exposed to the Nunc plate for one hour at 37° C. The coating solution was discarded and replaced with a blocking solution (phosphate buffered saline with Tween™ 20 (PBS-TW20); Sigma Chemical Co. Cat. P-3563) and 5% w/v nonfat dry milk. The blocking solution was exposed to the plate surface for two hours at 37° C. The blocking solution was subsequently discarded.
Female Brown Norway (BN) rats (n=10/group) were immunized by ID delivery using Microneedles (34 gauge needle inserted into a 3.5″ long catheter to an exposed needle length of 1.0 mm). ID delivery by Microneedles consisted of 2 bolus injections of 100 μl by hand to either side of the lower back of the rat, approximately 10 seconds in duration (each bolus), using an attached 1 cc syringe. […]

[4] = tested on: trivalent test antigen (New Calcdonia, Panama and B-Hong Kong); design: species or system Hartley Guinea Pigs; conditions: guinea pig, in vivo
guinea pig skin = assay: Guinea pig erythema Draize scoring after ID delivery of excipients; format: in vivo, Hartley guinea pigs; conditions: Tween 80 5%, Deoxycholate 0.1%, D-sorbitol 5%, Lutrol 15%; without antigen, 50 ul per injection, 34 gauge 1.0 mm; immediate, 1 h and 24 h readings
Description: The methods of the invention provide fundamental principles and guidelines whereby optimum parameters may be determined for delivering immunogenic compositions to the dermal compartment (including epidermal and intradermal compartments) wherein the excipients have optimum adjuvant properties and the formulations of the invention have enhanced efficacy in comparison to when the same formulation is delivered using conventional modes of delivery, including intramuscular and subcutaneous delivery. The invention provides methods wherein the formulations of the invention have been screened to have optimum concentration ranges for delivery to the optimum depth of the intradermal compartment such that they have adjuvant properties, resulting in one or more of the following properties: minimal to no skin irritation as determined and assessed using conventional modes of analysis of skin reactions using visual methods such as Draize scoring (For a typical draize scoring analysis see table below); minimal to no hemolysis as determined using standard methods known in the art, and enhanced immune response as measured by enhanced seroconversion and/or enhanced antibody titers.
Erythema Draize scores for various excipients were determined using procedures described in Section 5.4, above. In one study, Tween™ 80 (5%), Deoxycholate (0.1%), D-sorbitol (5%) or Lutrol™ (15%) was administered (50 μl per injection) without the antigen to Hartley guinea pigs using 34 gauge, 1.0 mm needles. […] Deeper administrations will be necessary for deoycholate to be used reliably at this concentration. From left to right, the reading immediately after administration, the one-hour reading and the 24-hour reading.

RBCs = assay: Hemolysis in blood of swine after ID Tween 80; format: in vivo, Yorkshire swine; conditions: 6 x 200 ul doses containing 5.0% Tween 80, 31 g x 1.5 mm needle, blood from systemic circulation
Method: Tween™ 80 Preferred concentrations avoid hemolysis: Surfactants/detergents can lyse RBCs. Blood from Yorkshire swine that received 6×200 ul doses containing 5.0% Tween™ 80 were collected. No hemolysis was observed was in blood taken immediately from the systemic circulation. A 31 g× 1.5 mm needle was used in the study.

intradermal tissue = assay: Excipient operating profile: maximum concentration with Draize score of 2 or less vs tissue depth (slope m)
Description: The preferred excipients of the invention have a common operating profile in the intradermal space defined by a slope (m) value of greater than 0.125. An exemplary profile for determining the optimal operating profile is depicted in FIG. 35. The slope identifies the change in maximum operating concentration as it relates to tissue depth within the intradermal compartment. […] The concentration of excipient at the first reference point is the highest concentration at the shallowest delivery depth that allows a draize score of 2 or less. […] The concentration of excipient at the second reference point is the highest concentration at the deepest delivery depth that allows a draize score of 2 or less. For example, the distance between the first and second delivery depth can be 2 mm apart and specifically 1 mm and 3 mm deliveries. The operating slope (m) can be described by the following formula: […]
Where C2 equals Cinfinity at D2
Where C1 equals maximum excipient concentration at D1 with a Draize score of 2 or less
Where Dn denotes delivery depth
Tween™ 80 matches the preferred excipient profile. FIG. 35 illustrates an excipient selected for the intradermal tissue according to the instant invention. Tween™ 80 has a profile similar to the “Excipient-A” in the illustration having a slope greater than 0.125. Whereby a 5% v/v soln of Tween™ 80 is at the maximum operating concentration at 1.0 mm depth, and can be used successfully at 10% v/v at the 3 mm depth.

## CCCCCCCC/C=C\CCCCCCCC(=O)OCCOCC(OCCO)C1OCC(OCCO)C1OCCO (centres unmarked) [Tween 80, polysorbate 80]
[1]; Tween 80 0.9% V/V with trivalent vaccine, 34 g x 1 mm needle, murine model
  immune response compared to commercial trivalent vaccine delivered IM: higher mean titers, higher median titers and higher seroconversion
[1]; Tween 80 at 5% + FLUZONE, Balb/c mice, ELISA with PR8 test antigen
  seroconversion: 100%
[1]; excipient 0.1% w/v with FLUZONE
  Trend in immune response as indicated by ELISA signal (1:123 serum screening dilution): 0.829
[1]; excipient 0.3% w/v with FLUZONE
  Trend in immune response as indicated by ELISA signal (1:123 serum screening dilution): 1.599
[1]; excipient 0.9% w/v with FLUZONE
  Trend in immune response as indicated by ELISA signal (1:123 serum screening dilution): 2.647
[2]; 5% Tween80 added to low or high dose FLUZONE, ID, rats, H3N2
  increase of mean HAI titre relative to ID delivery of FLUZONE alone: 5 fold
[2]; IDHigh (9 ug HA per rat)
  % Seroconversion (HAI Titre ≧ 10): 100%
  % Seroprotection (HAI Titre ≧ 40): 100%
[2]; IDLow (0.9 ug HA per rat)
  % Seroconversion (HAI Titre ≧ 10): 100%
  % Seroprotection (HAI Titre ≧ 40): 90%
[3]
  increase of mean ELISA titre relative to ID delivery of FLUZONE alone: up to 15 fold
[4]
  hemagglutin specific titer vs FLUZONE alone ID and FLUZONE alone IM: outperformed
Guinea pig skin
  Erythema Draize scores (tolerability): reasonably well-tolerated
RBCs
  hemolysis: No hemolysis
Intradermal tissue; 1.0 mm depth
  maximum operating concentration: 5 % v/v
Intradermal tissue; 3 mm depth
  concentration that can be used successfully: 10 % v/v
Intradermal tissue; intradermal tissue, 1.0 mm vs 3 mm depth
  slope (maximum acceptable conc./tissue depth): greater than 0.125
Swine skin; 2% Tween 80, 3.0 mm delivery, approximately 20-24 hours after administration, Yorkshire swine
  draize score: 0.0
Swine skin; 5% Tween 80, swine, 31 g 1.5 mm needle
  tolerability in the ID space: well tolerated
Swine skin; 10%, delivered to 1-2 mm depth, Yorkshire swine
  tolerability: not well tolerated
Swine skin; Tween 80 5%, Deoxycholate 0.1%, D-sorbitol 5%, Lutrol 15%, without antigen, 200 ul per injection, 31 gauge 1.5 mm, 1 h and 24 h readings
  Erythema Draize scores (tolerability): reasonably well-tolerated
Swine skin; in vivo
  erythema: moderate to severe erythema
  skin reactions as a function of needle depth: improved with depth
